Experimental data reported in patent US20200055839A1 (priority 2017, published 2020).

test system: NL-RLuc virus; assay: Inhibition of HIV replication (NL-RLuc virus, luciferase readout in MT-2 cells); format: cell-based; conditions: Human immunodeficiency virus 1, MT2, 120 h, MT-2 cells infected with NL-RLuc virus, 5 days of incubation, 10% FBS, at least 2 experiments
How it was run: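 EC50 derived via median effect equation from at least 2 experiments, using luciferase expression as virus-growth readout. Replication-competent NL-RLuc reporter virus (nef partly replaced by Renilla luciferase) infected MT-2 cells with serial compound dilutions; 5-day incubation in RPMI 1640 plus 10% FBS.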

First: COc1cccc(-c2cnc(C)c([C@H](OC(C)(C)C)C(=O)O)c2N2CCC(C)(C)CC2)n1 [Example 189, (S)-2-(tert-Butoxy)-2-(4′-(4,4-dimethylpiperidin-1-yl)-6-methoxy-6′-methyl-[2, 3′-bipyridin]-5′-yl)acetic acid]
Second: COc1ccc(F)cc1-c1cnc(C)c([C@H](OC(C)(C)C)C(=O)O)c1N1CCC(C)(C)CC1 [Example 151, (2S)-2-(tert-Butoxy)-2-[4-(4,4-dimethylpiperidin-1-yl)-5-(5-fluoro-2-methoxyphenyl)-2-methylpyridin-3-yl]acetic acid]
The EC50 of the first is 6.8-fold higher: 41 nM for the first, 6 nM for the second.

Cc1cc(-c2cnc(C)c([C@H](OC(C)(C)C)C(=O)O)c2N2CCC(C)(C)CC2)ncc1OCCc1ccc(F)cc1 [Example 248, (S)-2-(tert-Butoxy)-2-(4′-(4,4-dimethylpiperidin-1-yl)-5-(4-fluorophenethoxy)-4, 6′-dimethyl-[2, 3′-bipyridin]-5′-yl)acetic acid] and CCc1ccc(CCOc2ccc(-c3cnc(C)c([C@H](OC(C)(C)C)C(=O)O)c3N3CCC(C)(C)CC3)nc2)cc1 [Example 322, (2S)-2-(tert-butoxy)-2-[4′-(4,4-dimethylpiperidin-1-yl)-5-[2-(4-ethylphenyl)ethoxy]-6′-methyl-[2,3′-bipyridine]-5′-yl]acetic acid] are within 1.5-fold of each other in EC50: 1 nM for the first, 0.7 nM for the second.

Compared with Cc1ncc(-c2cnc(OCCc3cccc(F)c3)c(F)c2)c(N2CCC(C)(C)CC2)c1[C@H](OC(C)(C)C)C(=O)O [Example 119, (S)-2-(tert-Butoxy)-2-(4-(4,4-dimethylpiperidin-1-yl)-5′-fluoro-6′-(3-fluorophenethoxy)-6-methyl-[3, 3′-bipyridin]-5-yl)acetic acid], Cc1cc(CCOc2ncc(-c3cnc(C)c([C@H](OC(C)(C)C)C(=O)O)c3N3CCC(C)(C)CC3)cc2F)ccc1F [Example 397, (2S)-2-(tert-butoxy)-2-[4-(4,4-dimethylpiperidin-1-yl)-5′-fluoro-6′-[2-(4-fluoro-3-methylphenyl)ethoxy]-6-methyl-[3,3′-bipyridine]-5-yl]acetic acid] is 2-fold higher in EC50: 1 nM for the first, 2 nM for the second.

Compared with CCC(C)(C)O[C@H](C(=O)O)c1c(C)ncc(-c2ccc(OCCc3ccc(F)cc3)c(F)c2)c1N1CCC(C)(C)CC1 [Example 226, (S)-2-(4-(4,4-Dimethylpiperidin-1-yl)-5-(3-fluoro-4-(4-fluorophenethoxy)phenyl)-2-methylpyridin-3-yl)-2-(tert-pentyloxy)acetic acid], CC1(C)CCN(c2c(-c3ccc(OCCc4ccc(F)cc4)c(F)c3)cnc(C#N)c2[C@H](OC(C)(C)C)C(=O)O)CC1 [Example 217, (S)-2-(tert-Butoxy)-2-(2-cyano-4-(4,4-dimethylpiperidin-1-yl)-5-(3-fluoro-4-(4-fluorophenethoxy)phenyl)pyridin-3-yl)acetic acid] is 2-fold higher in EC50: 5 nM for the first, 10 nM for the second.

Going from Cc1nc(-c2cnn(C)c2C)c(-c2ccc(OCCc3ccc(F)cc3)cc2)c(N2CCC(C)(C)CC2)c1[C@H](OC(C)(C)C)C(=O)O [Example 49, (S)-2-(tert-Butoxy)-2-(6-(1,5-dimethyl-1H-pyrazol-4-yl)-4-(4,4-dimethylpiperidin-1-yl)-5-(4-(4-fluorophenethoxy)phenyl)-2-methylpyridin-3-yl)acetic acid] to Cc1nc(-c2cncnc2)c(-c2ccc(OCCc3ccc(F)cc3)cc2)c(N2CCC(C)(C)CC2)c1[C@H](OC(C)(C)C)C(=O)O [Example 39, (S)-2-(tert-Butoxy)-2-(4-(4,4-dimethylpiperidin-1-yl)-5-(4-(4-fluorophenethoxy)phenyl)-2-methyl-6-(pyrimidin-5-yl)pyridin-3-yl)acetic acid], the EC50 rises from 0.7 nM to 3 nM (4.3-fold). The first is the more potent here.

Cc1nc(N)c(-c2ccc(OCCc3ccc(F)cc3)c(F)c2)c(N2CCC(C)(C)CC2)c1[C@H](OC(C)(C)C)C(=O)O [Example 73, (S)-2-(6-Amino-4-(4,4-dimethylpiperidin-1-yl)-5-(3-fluoro-4-(4-fluorophenethoxy)phenyl)-2-methylpyridin-3-yl)-2-(tert-butoxy)acetic acid] and Cc1nc(NC2CC2)c(-c2ccc(OCCc3ccc(F)cc3)cc2)c(N2CCC(C)(C)CC2)c1[C@H](OC(C)(C)C)C(=O)O [Example 106, (S)-2-(tert-Butoxy)-2-(6-(cyclopropylamino)-4-(4,4-dimethylpiperidin-1-yl)-5-(4-(4-fluorophenethoxy)phenyl)-2-methylpyridin-3-yl)acetic acid] are the same in EC50: 1 nM for the first, 1 nM for the second.

Compared with Cc1ncc(-c2ccc(NCC(C)C)nc2)c(N2CCC(C)(C)CC2)c1[C@H](OC(C)(C)C)C(=O)O [Example 436, (S)-2-tert-Butoxy-2-(4-(4,4-dimethylpiperidin-1-yl)-6′-(isobutylamino)-6-methyl-3, 3′-bipyridin-5-yl)acetic acid], Cc1ncc(-c2cnc(OCC(C)C)c(F)c2)c(N2CCC(C)(C)CC2)c1[C@H](OC(C)(C)C)C(=O)O [Example 381, (2S)-2-(tert-butoxy)-2-[4-(4,4-dimethylpiperidin-1-yl)-5′-fluoro-6-methyl-6′-(2-methylpropoxy)-[3,3′-bipyridine]-5-yl]acetic acid] is 2.3-fold lower in EC50: 7 nM for the first, 3 nM for the second. The second is the more potent here.

Cc1ncc(-c2cncc(F)c2)c(N2CCC(C)(C)CC2)c1[C@H](OC(C)(C)C)C(=O)O [Example 148, (2S)-2-(tert-Butoxy)-2-[4-(4,4-dimethylpiperidin-1-yl)-5′-fluoro-6-methyl-[3, 3′-bipyridine]-5-yl]acetic acid] and COc1ccc(-c2cnc(C)c([C@H](OC(C)(C)C)C(=O)O)c2N2CCC(C)(C)CC2)cc1F [Example 179, (2S)-2-(tert-Butoxy)-2-[4-(4,4-dimethylpiperidin-1-yl)-5-(3-fluoro-4-methoxyphenyl)-2-methylpyridin-3-yl]acetic acid] are within 1.5-fold of each other in EC50: 7 nM for the first, 5 nM for the second.

Compared with CC1(C)CCN(c2c(-c3ccc(F)c(F)c3)cnc(Cl)c2[C@H](OC(C)(C)C)C(=O)O)CC1 [Example 208, (S)-2-(tert-Butoxy)-2-(2-chloro-5-(3,4-difluorophenyl)-4-(4,4-dimethylpiperidin-1-yl)pyridin-3-yl)acetic acid], Cc1nc(CO)c(-c2ccc(F)c(F)c2)c(N2CCC(C)(C)CC2)c1[C@H](OC(C)(C)C)C(=O)O [Example 140, (2S)-2-(tert-Butoxy)-2-[5-(3,4-difluorophenyl)-4-(4,4-dimethylpiperidin-1-yl)-6-(hydroxymethyl)-2-methylpyridin-3-yl]acetic acid] is 1.5-fold higher in EC50: 35 nM for the first, 53 nM for the second. The first is the more potent here.

Going from Cc1ncc(-c2ccc(OCCC(C)C)cn2)c(N2CCC(C)(C)CC2)c1[C@H](OC(C)(C)C)C(=O)O [Example 315, (2S)-2-(tert-butoxy)-2-[4′-(4,4-dimethylpiperidin-1-yl)-6′-methyl-5-(3-methylbutoxy)-[2,3′-bipyridine]-5′-yl]acetic acid] to Cc1ncc(-c2ccc(OCC(C)C)c(C(F)(F)F)n2)c(N2CCC(C)(C)CC2)c1[C@H](OC(C)(C)C)C(=O)O [Example 275, (S)-2-(tert-Butoxy)-2-(4′-(4,4-dimethylpiperidin-1-yl)-5-isobutoxy-6′-methyl-6-(trifluoromethyl)-[2, 3′-bipyridin]-5′-yl)acetic acid], the EC50 rises from 2 nM to 8 nM (4-fold). The first is the more potent here.

Cc1ncc(-c2cnc(OCC(C)(C)C)c(F)c2)c(N2CCC(C)(C)CC2)c1[C@H](OC(C)(C)C)C(=O)O [Example 375, (2S)-2-(tert-butoxy)-2-[4-(4,4-dimethylpiperidin-1-yl)-6′-(2,2-dimethylpropoxy)-5′-fluoro-6-methyl-[3,3′-bipyridine]-5-yl]acetic acid] and COc1cc(-c2cnc(C)c([C@H](OC(C)(C)C)C(=O)O)c2N2CCC(C)(C)CC2)cnc1OCC(C)C [Example 410, (S)-2-(tert-Butoxy)-2-(4-(4,4-dimethylpiperidin-1-yl)-6′-isobutoxy-5′-methoxy-6-methyl-[3,3′-bipyridin]-5-yl)acetic acid] are within 1.5-fold of each other in EC50: 8 nM for the first, 6 nM for the second.

Going from Cc1ncc(-c2ccc(OCCc3ccccc3F)cc2)c(N2CCC(C)(C)CC2)c1[C@H](OC(C)(C)C)C(=O)O [Example 259, (S)-2-(tert-Butoxy)-2-(4-(4,4-dimethylpiperidin-1-yl)-5-(4-(2-fluorophenethoxy)phenyl)-2-methylpyridin-3-yl)acetic acid] to COc1ccc(F)c(-c2cnc(C)c([C@H](OC(C)(C)C)C(=O)O)c2N2CCC(C)(C)CC2)c1 [Example 150, (2S)-2-(tert-Butoxy)-2-[4-(4,4-dimethylpiperidin-1-yl)-5-(2-fluoro-5-methoxyphenyl)-2-methylpyridin-3-yl]acetic acid], the EC50 rises from 1 nM to 12 nM (12-fold). The first is the more potent here.

First: COc1ccc(-c2cnc(C)c([C@H](OC(C)(C)C)C(=O)O)c2N2CCC(C)(C)CC2)cc1C [Example 178, (2S)-2-(tert-Butoxy)-2-[4-(4,4-dimethylpiperidin-1-yl)-5-(4-methoxy-3-methylphenyl)-2-methylpyridin-3-yl]acetic acid]
Second: Cc1ncc(-c2ncccn2)c(N2CCC(C)(C)CC2)c1[C@H](OC(C)(C)C)C(=O)O [Example 187, (2S)-2-(tert-Butoxy)-2-[4-(4,4-dimethylpiperidin-1-yl)-2-methyl-5-(pyrimidin-2-yl)pyridin-3-yl]acetic acid]
The EC50 of the first is 54-fold lower: 2 nM for the first, 107 nM for the second. The first is the more potent here.

With Cc1nc(OCC(C)C)c(Cl)cc1-c1cnc(C)c([C@H](OC(C)(C)C)C(=O)O)c1N1CCC(C)(C)CC1 [Example 425, (S)-2-(tert-Butoxy)-2-(5′-chloro-4-(4,4-dimethylpiperidin-1-yl)-6′-isobutoxy-2′,6-dimethyl-[3, 3′-bipyridin]-5-yl)acetic acid] the EC50 was 126 nM.

same assay, conditions: MT-2 cells infected with NL-RLuc virus, 5 days of incubation, 10% FBS, at least 2 experiments

In the case of Cc1nc(Nc2ccnc(F)c2)c(-c2ccc(OCCc3ccc(F)cc3)cc2)c(N2CCC(C)(C)CC2)c1[C@H](OC(C)(C)C)C(=O)O [Example 96, (S)-2-(tert-Butoxy)-2-(4-(4,4-dimethylpiperidin-1-yl)-5-(4-(4-fluorophenethoxy)phenyl)-6-((2-fluoropyridin-4-yl)amino)-2-methylpyridin-3-yl)acetic acid], the EC50 is reported as 21 nM.
